Experimental data taken from US8765786B2, “1-substituted indazole derivative” (Dainippon Sumitomo Pharma Co., Ltd., priority 2012, dated 2014).

Molecular target: T1, human α7 nAChR (Homo sapiens, UniProt P36544)
T1 construct: expressed in transfected cells; host or cells: GH4C1 cells derived from rat pituitary (ATCC CCL-82.2)
Assay: Evaluation of PAM activity with human α7 nACh receptor stably expressing cells (aequorin luminescence, FDSS7000)
Type: cell-based
Conditions: for α7PAM (%) @ 10 μmol/L / activity at 10 µM: test compound 10 μmol/L, ACh added at EC20, ratio of RLU (Max-Min) of test wells to control wells; for activity at 10 µM: read-out: α7PAM (%) @ 10 μmol/L
Method in brief: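 PAM activity defined as RLU (Max-Min) of compound wells over control wells, from 465 nm aequorin luminescence tracked 138 s after ACh challenge. Host: GH4C1 (rat pituitary) stably co-expressing human α7 nAChR and aequorin, pre-loaded 4 h with 4 μmol/L luminescent substrate.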

T1 sequence (P36544 23-502): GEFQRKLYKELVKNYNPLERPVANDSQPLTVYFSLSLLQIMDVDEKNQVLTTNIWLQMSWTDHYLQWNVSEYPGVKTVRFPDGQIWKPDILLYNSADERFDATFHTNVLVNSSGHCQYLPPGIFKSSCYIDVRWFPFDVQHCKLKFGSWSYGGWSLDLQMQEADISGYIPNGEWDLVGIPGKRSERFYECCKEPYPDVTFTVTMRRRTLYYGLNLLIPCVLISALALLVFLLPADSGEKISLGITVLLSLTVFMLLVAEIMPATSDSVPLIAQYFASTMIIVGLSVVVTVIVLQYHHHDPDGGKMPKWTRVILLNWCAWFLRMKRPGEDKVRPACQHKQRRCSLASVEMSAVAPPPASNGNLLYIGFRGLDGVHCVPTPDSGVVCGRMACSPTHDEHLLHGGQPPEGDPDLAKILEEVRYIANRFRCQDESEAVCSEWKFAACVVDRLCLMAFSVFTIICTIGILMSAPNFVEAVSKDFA

Compound | α7PAM (%) @ 10 μmol/L [%] | also measured
[2H]C([2H])([2H])O[C@H]1CC[C@H](NC(=O)N2CCC(n3ncc4cc(OC(F)F)ccc43)CC2)CC1 [Example 326] | 1251 | 
CO[C@H]1CC[C@H](NC(=O)N2CCC(n3ncc4cc(OC5CC5)ccc43)CC2)CC1 [Example 230, 4-[5-(cyclopropoxy)-1H-indazol-1-yl]-N-(trans-4-methoxycyclohexyl)piperidine-1-carboxamide] |  | activity at 10 µM: 621%
O=C(NC1CCC(F)(F)CC1)N1CCC(n2ncc3c(C4CC4)cccc32)CC1 [Example 161] | 567 | 
CO[C@H]1CC[C@@H](NC(=O)N2CCC(n3ncc4c(C5CC5)cccc43)CC2)CC1 [Example 160] | 207 | 
O=C(C1CCC(F)(F)CC1)N1CCC(n2ncc3ccccc32)CC1 [Example 137] | 328 | 
CO[C@H]1CC[C@H](NC(=O)N2CCC(n3ncc4c(C)c(C5CC5)ccc43)CC2)CC1 [Example 277, 4-(5-cyclopropyl-4-methyl-1H-indazol-1-yl)-N-(trans-4-methoxycyclohexyl)piperidine-1-carboxamide] |  | activity at 10 µM: 729%
Cc1ccc2c(c1)c(OC(C)C)nn2C1CCN(C(=O)NC2CCOCC2)CC1 [Example 208] | 328 | 
O=C(NC1CCC1)N1CCC(n2ncc3cc(C4CC4)ccc32)CC1 [Example 185] | 494 | 
Cc1cccc2c1cnn2C1CCN(C(=O)NC2CCC(F)(F)CC2)CC1 [Example 93] | 934 | 
COC(C)c1ccc2c(cnn2C2CCN(C(=O)N[C@H]3CC[C@H](OC)CC3)CC2)c1 (some centres unmarked) [Example 245] | 182 | 
[2H]C([2H])([2H])O[C@H]1CC[C@H](NC(=O)N2CCC(n3ncc4cc(C5CC5)ccc43)CC2)CC1 [Example 296, 4-(5-cyclopropyl-1H-indazol-1-yl)-N-{trans-4-[(^2H3)methoxy]cyclohexyl}piperidine-1-carboxamide] | 1268 | 
[2H]C([2H])([2H])c1ccc2c(cnn2C2CCN(C(=O)NC3CCC(F)(F)CC3)CC2)c1 [Example 311] | 1393 | 
CCc1ccc2c(cnn2[C@H]2CC[C@@H](NC(=O)C3CCCCC3)CC2)c1 [Example 119] | 2154 | PAM activity for α7 nAChR (result in words, ratio of RLU (Max-Min) to control wells, ACh EC20): stronger PAM activity than others
COc1nn(C2CCN(C(=O)NC3CCOCC3)CC2)c2ccc(OC(F)(F)F)cc12 [Example 264] | 263 | 
[2H]C([2H])([2H])c1ccc2c(cnn2C2CCN(C(=O)NC3CCCC3)CC2)c1 [Example 315] | 825 | 
CCO[C@H]1CC[C@H](NC(=O)N2CCC(n3ncc4c(C5CC5)cccc43)CC2)CC1 [Example 44] | 322 | 
COc1ccc2c(cnn2C2CCN(C(=O)N[C@H]3CC[C@H](OC)CC3)CC2)c1OC [Example 306] | 147 | 
CCc1c(OC)ccc2c1cnn2C1CCN(C(=O)N[C@H]2CC[C@H](OC)CC2)CC1 [Example 288] | 218 | 
COc1ccc2c(cnn2C2CCN(C(=O)NC3CCC(F)(F)CC3)CC2)c1C1CC1 [Example 280] | 299 | 
CCc1nn(C2CCN(C(=O)NC3CCOCC3)CC2)c2ccc(OC)cc12 [Example 244] | 324 | 
COc1ccc2c(c1)c(C1=CCOCC1)nn2C1CCN(C(=O)N[C@H]2CC[C@H](OC)CC2)CC1 [Example 260] | 428 | 
Cc1ccc2c(cnn2C2CCN(C(=O)NC3CCC(OCC(F)(F)F)CC3)CC2)c1 (centres unmarked) [Example 83] | 420 | 
CCOc1ccc2c(cnn2C2CCN(C(=O)N[C@H]3CC[C@H](OC)CC3)CC2)c1 [Example 30] | 908 | 
COc1ccc2c(c1)c(C)nn2C1CCN(C(=O)NC2CCC(F)(F)CC2)CC1 [Example 243] | 842 | 
CCOCc1ccc2c(cnn2C2CCN(C(=O)NC3CCC(F)(F)CC3)CC2)c1 [Example 207] | 335 | 
